ChEMBL document CHEMBL1201862, “PubChem BioAssay data set” (2004)
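Values below derive from 48-hour exposures of cells grown in 96-well plates, with endpoints linearly interpolated between the two concentrations bracketing the appropriate inhibition level. GI50 marks 50% less growth.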 The source made the active and inactive calls. Rule as the data show it: active = GI50 up to about 1.1 µM and inactive = higher.

Key:
Assay in all cases: NCI-60 cell line screen, 48 h
UACC-62 = tested on: UACC-62
RPMI-8226 = tested on: RPMI-8226
Malme-3M = tested on: Malme-3M
LXFL 529 = tested on: LXFL 529
HCT-116 = tested on: HCT-116
NCI-H522 = tested on: NCI-H522
786-0 = tested on: 786-0
M19-MEL = tested on: M19-MEL
CAKI-1 = tested on: CAKI-1
SF-295 = tested on: SF-295
SF-539 = tested on: SF-539
MOLT-4 = tested on: MOLT-4
RXF 393 = tested on: RXF 393
OVCAR-4 = tested on: OVCAR-4
OVCAR-5 = tested on: OVCAR-5
HCC 2998 = tested on: HCC 2998
NCI/ADR-RES = tested on: NCI/ADR-RES
MDA-MB-231 = tested on: MDA-MB-231
PC-3 = tested on: PC-3
DU-145 = tested on: DU-145

Measured: GI50

CC(C)C1CCC/C=C/C=C/C=C/C=C/C(OC2OC(C)C(O)C(N)C2O)CC2OC(O)(CC(O)CC(O)C(O)CCC(=O)O1)CC(O)C2C(=O)O (stereo not given)
inactive: UACC-62 > 52.5 µM | RPMI-8226 > 52.5 µM | Malme-3M > 52.5 µM | LXFL 529 > 52.5 µM | HCT-116 > 52.5 µM | NCI-H522 > 52.5 µM | 786-0 > 52.5 µM | M19-MEL > 52.5 µM | CAKI-1 > 52.5 µM | SF-295 > 52.5 µM | SF-539 > 52.5 µM | MOLT-4 > 52.5 µM

O=C(O)c1ccccc1/N=N/c1ccc2oc(=O)c(C(=O)Nc3ccccc3)cc2c1
inactive: UACC-62 22.9 µM | RPMI-8226 19.1 µM | Malme-3M 23.7 µM | HCT-116 29.6 µM | RXF 393 28.4 µM | NCI-H522 34.8 µM | 786-0 70.8 µM | M19-MEL 33.3 µM | SF-295 50.2 µM | SF-539 31.3 µM | MOLT-4 32.8 µM

Cc1c2n(c(=O)[nH]c1=O)C1OC(CO)C(O2)C1O (stereo not given)
inactive: UACC-62 > 100 µM | OVCAR-4 > 100 µM | RPMI-8226 > 100 µM | LXFL 529 > 100 µM | HCT-116 > 100 µM | RXF 393 > 100 µM | NCI-H522 > 100 µM | 786-0 > 100 µM | M19-MEL > 100 µM | CAKI-1 > 100 µM | SF-295 > 100 µM | SF-539 > 100 µM | MOLT-4 > 100 µM

O=C(c1ccc(Cl)cc1)N(C(=S)N1CCN(c2ccccn2)CC1)C1CCCCC1
inactive: UACC-62 > 100 µM | OVCAR-4 > 100 µM | RPMI-8226 25.5 µM | Malme-3M > 100 µM | LXFL 529 75.7 µM | HCT-116 36.6 µM | RXF 393 35.6 µM | NCI-H522 38.6 µM | 786-0 36.4 µM | OVCAR-5 > 100 µM | M19-MEL > 100 µM | CAKI-1 > 100 µM | SF-295 74.1 µM | SF-539 61.7 µM | MOLT-4 24.3 µM

O=c1[nH]nc2ccccc2c1Cc1ccccc1
inactive: UACC-62 > 100 µM | OVCAR-4 > 100 µM | RPMI-8226 > 100 µM | Malme-3M > 100 µM | HCT-116 > 100 µM | 786-0 > 100 µM | OVCAR-5 > 100 µM | HCC 2998 59.3 µM | M19-MEL > 100 µM | CAKI-1 > 100 µM | SF-295 > 100 µM | SF-539 > 100 µM | MOLT-4 > 100 µM

N#Cc1ccc(/C=N/C23CC4CC(CC(C4)C2)C3)cc1
inactive: UACC-62 > 100 µM | OVCAR-4 > 100 µM | RPMI-8226 > 100 µM | Malme-3M > 100 µM | HCT-116 39.4 µM | RXF 393 > 100 µM | NCI-H522 > 100 µM | 786-0 > 100 µM | OVCAR-5 > 100 µM | HCC 2998 > 100 µM | M19-MEL > 100 µM | CAKI-1 > 100 µM | SF-295 > 100 µM | SF-539 > 100 µM | MOLT-4 78.5 µM

CCOc1cc(NC(C)=O)ccc1C(=O)NN1C(=O)C(Cl)C1c1ccc(O)c(OC)c1 (stereo not given)
inactive: UACC-62 12.3 µM | OVCAR-4 12.8 µM | RPMI-8226 17.3 µM | Malme-3M 8 µM | NCI/ADR-RES 20.4 µM | HCT-116 18.2 µM | RXF 393 12 µM | NCI-H522 6.35 µM | 786-0 13.1 µM | OVCAR-5 19.1 µM | HCC 2998 17.2 µM | MDA-MB-231 13.3 µM | PC-3 14.1 µM | CAKI-1 16.5 µM | SF-295 21.3 µM | DU-145 15.6 µM | SF-539 11.4 µM | MOLT-4 5.3 µM

COc1cc(C[C@H]2C(=O)OC[C@@H]2Cc2ccc(OC)c(OC)c2)cc(OC)c1
inactive: UACC-62 62.8 µM | OVCAR-4 29.7 µM | RPMI-8226 52.7 µM | Malme-3M 55.6 µM | NCI/ADR-RES 32.1 µM | HCT-116 34.7 µM | RXF 393 > 100 µM | NCI-H522 64.3 µM | 786-0 > 100 µM | OVCAR-5 > 100 µM | HCC 2998 > 100 µM | MDA-MB-231 93.3 µM | PC-3 33 µM | CAKI-1 > 100 µM | SF-295 88.1 µM | DU-145 > 100 µM | SF-539 > 100 µM | MOLT-4 27.2 µM

COC(=O)C(/C(=N/N)C(=O)Nc1cc(Cl)ccc1Cl)c1nc2ccc([N+](=O)[O-])cc2nc1O (stereo not given)
inactive: UACC-62 > 100 µM | OVCAR-4 > 100 µM | RPMI-8226 > 100 µM | Malme-3M > 100 µM | LXFL 529 48 µM | HCT-116 > 100 µM | NCI-H522 21.3 µM | 786-0 > 100 µM | OVCAR-5 > 100 µM | HCC 2998 74.6 µM | SF-295 > 100 µM | SF-539 93.3 µM | MOLT-4 17 µM

Cc1c(/N=N/c2ccc(Cl)cc2)c(C)n(C2OC(CO)C(O)C(O)C2O)c(=S)c1C#N (stereo not given)
inactive: UACC-62 3.25 µM | OVCAR-4 16.5 µM | RPMI-8226 16.4 µM | Malme-3M 22.5 µM | NCI/ADR-RES 19 µM | HCT-116 15.1 µM | RXF 393 31.1 µM | NCI-H522 20 µM | 786-0 18.5 µM | OVCAR-5 30.5 µM | HCC 2998 23.7 µM | MDA-MB-231 18.4 µM | PC-3 23.4 µM | CAKI-1 64.1 µM | SF-295 31.8 µM | DU-145 20.5 µM | SF-539 20.4 µM | MOLT-4 13.9 µM

Cc1n[nH]c(=O)n1/N=C\CC/C=N\n1c(C)n[nH]c1=O
inactive: UACC-62 > 100 µM | OVCAR-4 > 100 µM | RPMI-8226 > 100 µM | Malme-3M > 100 µM | NCI/ADR-RES > 100 µM | HCT-116 > 100 µM | RXF 393 > 100 µM | NCI-H522 > 100 µM | 786-0 > 100 µM | OVCAR-5 > 100 µM | HCC 2998 > 100 µM | MDA-MB-231 > 100 µM | PC-3 > 100 µM | CAKI-1 > 100 µM | SF-295 > 100 µM | DU-145 > 100 µM | SF-539 > 100 µM | MOLT-4 > 100 µM

C[C@]1(CO)[C@H]2CC[C@@]34C=C[C@@](CO)(CC[C@H]3[C@]2(C)CC[C@H]1O)C4
inactive: UACC-62 94.6 µM | OVCAR-4 13.3 µM | RPMI-8226 27 µM | Malme-3M 20.5 µM | NCI/ADR-RES 27.3 µM | HCT-116 56.9 µM | RXF 393 36.9 µM | NCI-H522 64.4 µM | 786-0 43.9 µM | OVCAR-5 > 100 µM | HCC 2998 38.3 µM | MDA-MB-231 28.2 µM | PC-3 44.3 µM | CAKI-1 30.9 µM | SF-295 57.9 µM | DU-145 42.2 µM | SF-539 96.2 µM | MOLT-4 8.93 µM

Cc1ccc(/C=N/Nc2nc3ccccc3s2)s1
inactive: UACC-62 74.6 µM | OVCAR-4 34.4 µM | RPMI-8226 > 100 µM | Malme-3M > 100 µM | NCI/ADR-RES > 100 µM | HCT-116 > 100 µM | RXF 393 82.6 µM | NCI-H522 > 100 µM | 786-0 66.5 µM | OVCAR-5 > 100 µM | HCC 2998 55.6 µM | MDA-MB-231 24.7 µM | PC-3 27.9 µM | CAKI-1 79.3 µM | SF-295 40.9 µM | DU-145 > 100 µM | SF-539 91.8 µM | MOLT-4 > 100 µM
